Here are results for 26 compounds from patent US11447482B1, “Imidazopyridine and oxazolopyridine derivatives and analogs thereof, methods of preparation thereof, methods of HIF-2A pathway inhibition, and induction of ferroptosis” (KUDA Therapeutics, Inc., priority 2019, dated 2022).

The first experiment concerns the target HIF-2α transcriptional activity. Nature of the experiment: Hypoxia-responsive element-driven luciferase (HRE-Luc) assay. The experiment is classed as cell-based, human. The settings on record: 786-0 CCRCC cells stably expressing HRE-Luc, 24 hours treatment. The method, then:
Screens for inhibitory activity of compounds described herein were performed using 786-0 CCRCC cells that stably express HRE-Luc: 5 copies of the hypoxia-responsive element (HRE) fused to the pGL3 luciferase reporter (Promega Corp, Madison Wis.). 786-0 cells are pVHL deficient and thus constitutively express HIF-2α independently of cellular oxygen tension (Maxwell, Wiesener et al. 1999). Since 786-0 cells lack HIF-1α, HRE-driven luciferase activity is primarily HIF-2α driven, and has been previously validated (Koh, Lemos et al. 2011). Cells were maintained at log phase growth in Dulbecco's […] (DMEM) with 10% FBS in a humidified incubator at 37° C. with 5% CO2. For screening assays, cells were seeded at a density of 4,000 cells in 50 μl of complete media/well in quadruplicate wells/point in a 96-well plate. 24 hours later, 50 μl of a 2× concentration of test compound was added to each well. Compounds were diluted from a 5-10 mM stock in DMSO and final concentrations of DMSO in each well in controls and treated wells were kept constant at ≤0.6% DMSO. After 24 hours' treatment, luciferase activity was measured using the Steady-Glo Luciferase assay system (Promega Corp) according to the manufacturer's protocol. Cell viability was measured in quadruplicate parallel wells using resazurin as recommended by the manufacturer (R&D systems, Minneapolis, Minn.). Data for luciferase and resazurin were normalized to DMSO treated controls (defining 100%) and wells containing assay reagent but no cells (defining 0%), and graphed using the log inhibitor versus normalized response option in Prism7 Graphpad software. Representative data determined using Steady-Glo luciferase and resazurin are shown in FIGS. 1A and 1B respectively, with error bars showing standard error of the mean (SEM).
The term IC50 denotes the concentration that inhibits the measured activity by half. A low value points to inhibition by little substance. `COc1ccc(-c2nnc(Nc3nc4c(Cl)nccc4[nH]3)o2)cc1` [KD022, N-(4-chloro-1H-imidazo[4,5-c]75yridine-2-yl)-5-(4-methoxyphenyl)-1,3,4-oxadiazol-2-amine] showed an IC50 of 28.3 µM.

Staying with this experiment, now noted: Homo sapiens; 786-0 CCRCC cells stably expressing HRE-Luc, 24 hours treatment.
Compound `Fc1ccc(-c2nnc(Nc3nc4cnc(N5CCOCC5)cc4[nH]3)o2)cc1` [KD009, 5-(4-Fluorophenyl)-N-(6-morpholino-1H-imidazo[4,5-c]pyridin-2-yl)-1,3,4-oxadiazol-2-amine] displayed an IC50 of 15.4 µM.

Consider `Fc1ccc(-c2nnc(Nc3nc4cncc(N5CCOCC5)c4[nH]3)o2)cc1` [KD017, 5-(4-Fluorophenyl)-N-(7-morpholino-1H-imidazo[4,5-c]pyridin-2-yl)-1,3,4-oxadiazol-2-amine], for which half-maximal inhibition (IC50) was put at 16.3 µM. The IC50 values of the last two compounds are within 1.5-fold of each other.

In the case of `Fc1ccc(-c2nnc(Nc3nc4ccnc(N5CCOCC5)c4[nH]3)o2)cc1` [KD016, 5-(4-Fluorophenyl)-N-(4-morpholino-3H-imidazo[4,5-c]pyridin-2-yl)-1,3,4-oxadiazol-2-amine], the IC50 is 10.2 µM.

In the case of `COc1nccc2[nH]c(Nc3nnc(-c4ccc(C)cc4)o3)nc12` [KD028, N-(4-methoxy-1H-imidazo[4,5-c]pyridin-2-yl)-5-(p-tolyl)-1,3,4-oxadiazol-2-amine], half-maximal inhibition (IC50) was put at 9.12 µM.

For the compound `COc1nccc2[nH]c(Nc3nnc(-c4ccc(C(C)(C)C)cc4)o3)nc12` [KD042, 5-(4-(tert-Butyl)phenyl)-N-(4-methoxy-1H-imidazo[4,5-c]pyridin-2-yl)-1,3,4-oxadiazol-2-amine], the IC50 was more than 100 µM.

The compound `COc1ccc2[nH]c(Nc3nnc(-c4ccc(F)cc4)o3)nc2n1` [KD003, 5-(4-Fluorophenyl)-N-(5-methoxy-1H-imidazo[4,5-b]pyridin-2-yl)-1,3,4-oxadiazol-2-amine] registered an IC50 of 8.16 µM.

In turn, `Fc1ccc(-c2nnc(Nc3nc4cnc(Cl)nc4[nH]3)o2)cc1` [KD013, N-(2-Chloro-9H-purin-8-yl)-5-(4-fluorophenyl)-1,3,4-oxadiazol-2-amine] yielded an IC50 of 37.6 µM.

Take `COc1ccc(-c2nnc(Nc3nc4ncccc4o3)o2)cc1` [KD029, N-(5-(4-Methoxyphenyl)-1,3,4-oxadiazol-2-yl)oxazolo[4,5-b]pyridin-2-amine]: the IC50 was found to be 6.1 µM. This IC50 is about 6.2-fold lower than that of the compound before.

`COc1nccc2[nH]c(Nc3nnc(-c4ccc(C#N)cc4)o3)nc12` [KD031, 4-(5-((4-Methoxy-1H-imidazo[4,5-c]pyridin-2-yl)amino)-1,3,4-oxadiazol-2-yl) benzonitrile] showed an IC50 of 3.7 µM.

Regarding `COc1nccc2[nH]c(Nc3nnc(-c4ccc(OC(C)C)cc4)o3)nc12` [KD041, 5-(4-Isopropoxyphenyl)-N-(4-methoxy-1H-imidazo[4,5-c]pyridin-2-yl)-1,3,4-oxadiazol-2-amine], the IC50 was 22.6 µM.

In turn, `CS(=O)(=O)C1CCN(c2cc3[nH]c(Nc4nnc(-c5ccc(F)cc5)o4)nc3cn2)CC1` [KD015, 5-(4-Fluorophenyl)-N-(6-(4-(methylsulfonyl)piperidin-1-yl)-1H-imidazo[4,5-c]pyridin-2-yl)-1,3,4-oxadiazol-2-amine] returned an IC50 of more than 100 µM.

The compound `Fc1ccc(-c2nnc(Nc3nc4ccnc(-c5ccc6c(c5)OCO6)c4[nH]3)o2)cc1` [KD030, N-(4-(Benzo[d][1,3]dioxol-5-yl)-3H-imidazo[4,5-c]pyridin-2-yl)-5-(4-fluorophenyl)-1,3,4-oxadiazol-2-amine] showed an IC50 of 19.9 µM.

As for `Fc1ccc(-c2nnc(Nc3nc4cnc(Cl)cc4[nH]3)o2)cc1` [KD004, N-(6-Chloro-1H-imidazo[4,5-c]pyridin-2-yl)-5-(4-fluorophenyl)-1,3,4-oxadiazol-2-amine], the IC50 stood at 40.3 µM.

On to `COc1nccc2[nH]c(Nc3nnc(-c4ccc(N(C)C)cc4)o3)nc12` [KD027, N-(4-Methoxy-1H-imidazo[4,5-c]pyridin-2-yl)-5-(4-(dimethylamino)phenyl)-1,3,4-oxadiazol-2-amine], for which inhibition was half-maximal at 2.83 µM (IC50).

`COc1cccc(-c2nccc3nc(Nc4nnc(-c5ccc(F)cc5)o4)[nH]c23)c1` [KD018, 5-(4-Fluorophenyl)-N-(4-(3-methoxyphenyl)-3H-imidazo[4,5-c]pyridin-2-yl)-1,3,4-oxadiazol-2-amine] displayed an IC50 of 72.7 µM. Against the preceding compound, the IC50 is about 26-fold higher.

For the compound `COc1nccc2[nH]c(Nc3nnc(-c4ccc(OC5CC5)cc4)o3)nc12` [KD040, 5-(4-Cyclopropoxyphenyl)-N-(4-methoxy-1H-imidazo[4,5-c]pyridin-2-yl)-1,3,4-oxadiazol-2-amine], half-maximal inhibition (IC50) required 6.86 µM.

For the compound `COc1ccc(-c2nnc(Nc3nc4c(OC)nccc4[nH]3)o2)cc1F` [KD032, 5-(3-Fluoro-4-methoxyphenyl)-N-(4-methoxy-1H-imidazo[4,5-c]pyridin-2-yl)-1,3,4-oxadiazol-2-amine], the IC50 worked out at 1.94 µM.

On to `Fc1ccc(-c2nnc(Nc3nc4cnc(C(F)(F)F)cc4[nH]3)o2)cc1` [KD005HCL, 5-(4-Fluorophenyl)-N-(6-(trifluoromethyl)-1H-imidazo[4,5-c]pyridin-2-yl)-1,3,4-oxadiazol-2-amine], for which the IC50 amounted to 16.1 µM.

Compound `COc1ccc2nc(Nc3nnc(-c4ccc(F)cc4)o3)sc2n1` [KD008, 5-(4-Fluorophenyl)-N-(5-methoxythiazolo[5,4-b]pyridin-2-yl)-1,3,4-oxadiazol-2-amine] registered an IC50 of 52.3 µM.

Consider `COc1nccc2[nH]c(Nc3nnc(-c4ccc5c(c4)OCO5)o3)nc12` [KD026, N-(4-Methoxy-1H-imidazo[4,5-c]pyridin-2-yl)-5-(benzo[d][1,3]dioxol-5-yl)-1,3,4-oxadiazol-2-amine], for which the half-inhibitory concentration (IC50) stood at 2.72 µM. Against the preceding compound, the IC50 is about 19-fold lower.

Turning to `Cc1cncc2nc(Nc3nnc(-c4ccc(F)cc4)o3)[nH]c12` [KD006TFA, 5-(4-Fluorophenyl)-N-(7-methyl-1H-imidazo[4,5-c]pyridin-2-yl)-1,3,4-oxadiazol-2-amine], half-maximal inhibition (IC50) required 23.8 µM.

In turn, `CN1CCN(c2cc3[nH]c(Nc4nnc(-c5ccc(F)cc5)o4)nc3cn2)CC1` [KD010, 5-(4-Fluorophenyl)-N-(6-(4-methylpiperazin-1-yl)-1H-imidazo[4,5-c]pyridin-2-yl)-1,3,4-oxadiazol-2-amine] had an IC50 of more than 100 µM.

For `COc1nccc2[nH]c(Nc3nnc(-c4ccc(C(F)(F)F)cc4)o3)nc12` [KD019, N-(4-methoxy-1H-imidazo[4,5-c]pyridin-2-yl)-5-(4-(trifluoromethyl)phenyl)-1,3,4-oxadiazol-2-amine], the IC50 came out at 32.6 µM.

As to `COc1ccc(-c2nnc(Nc3nc4c(OC)nccc4[nH]3)o2)cn1` [KD038, N-(4-Methoxy-1H-imidazo[4,5-c]pyridin-2-yl)-5-(6-methoxypyridin-3-yl)-1,3,4-oxadiazol-2-amine], the IC50 came to 7.6 µM.

The compound `COc1nccc2[nH]c(Nc3nnc(-c4ccc(OC(F)(F)F)cc4)o3)nc12` [KD020, N-(4-methoxy-1H-imidazo[4,5-c]pyridin-2-yl)-5-(4-(trifluoromethoxy)phenyl)-1,3,4-oxadiazol-2-amine] returned an IC50 of 16.5 µM.
